Experimental data as given in publication PMC10052880 (Phytomedicine, 2023).

Key:
SARS-CoV-2 3CL^pro [1] = molecular target: T1, SARS-CoV-2 3CL^pro (Severe acute respiratory syndrome coronavirus 2, UniProt P0DTD1); experiment: biochemical
SARS-CoV-2 3CL^pro [2] = molecular target: T1, SARS-CoV-2 3CL^pro; experiment: Inactivation kinetic analyses against SARS-CoV-2 3CL^pro; type: biochemical
[3] = IC50 (μM) 3 min, 3 min preincubation
[4] = IC50 (μM) 63 min, 63 min preincubation

Row | Structure (SMILES) | Ratio (SARS-CoV-2 3CL^pro [1]) | IC50 (SARS-CoV-2 3CL^pro [1]; [3]) | IC50 (SARS-CoV-2 3CL^pro [1]; [4]) | Ki (SARS-CoV-2 3CL^pro [2]) | kinact (SARS-CoV-2 3CL^pro [2]; read-out: Kinact (min^−1))
1 | O=c1cc(-c2ccc(O)c(-c3c(O)cc(O)c4c(=O)cc(-c5ccc(O)cc5)oc34)c2)oc2cc(O)cc(O)c12 [amentoflavone] | 1.92 | 82.1 µM | 42.9 µM |  | 
2 | O=c1cc(-c2ccc(O)cc2)oc2cc(O)cc(O)c12 [apigenin] | 3.62 | 115 µM | 31.7 µM |  | 
3 | COc1ccc(-c2cc(=O)c3c(O)cc(O)cc3o2)cc1-c1c(O)cc(O)c2c(=O)cc(-c3ccc(O)cc3)oc12 [bilobetin] | 3.54 | 32.1 µM | 9.06 µM |  | 
4 | Oc1cc(O)c2c(c1)O[C@H](c1ccc(O)c(O)c1)[C@H](O)C2 [epicatechin] | 6.22 | 70.6 µM | 11.3 µM |  | 
5 | Oc1cc(O)c2c(c1)O[C@H](c1cc(O)c(O)c(O)c1)[C@@H](O)C2 [gallocatechin] | 3.30 | 3.23 µM | 0.98 µM | 2.52 µM | 0.03 min⁻¹
6 | COc1cc(O)c2c(=O)cc(-c3ccc(OC)c(-c4c(O)cc(O)c5c(=O)cc(-c6ccc(O)cc6)oc45)c3)oc2c1 [ginkgetin] | 10.32 | 76.5 µM | 7.42 µM |  | 
7 | COc1ccc(-c2cc(=O)c3c(O)cc(O)c(-c4cc(-c5cc(=O)c6c(O)cc(O)cc6o5)ccc4OC)c3o2)cc1 [isoginkgetin] | 2.01 | 70.8 µM | 35.2 µM |  | 
8 | O=c1cc(-c2ccc(O)c(O)c2)oc2cc(O)cc(O)c12 [luteolin] | 10.57 | 195 µM | 18.4 µM |  | 
